Test results reported in patent US6914045B2, “Glycopeptide antibiotics” (Wyeth Holdings Corporation, priority 2001, dated 2005).
In brackets after ≈: the same amount, converted by molar mass.

Key:
Enterococcus sp. = assay: in vitro antibacterial evaluation, MIC by broth dilution; assay type: cell-based; settings: broth dilution, 18 hours at 35° C.
Procedure, shortened: (§1)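 Broth dilution per NCCLS standard M7-A2 in Muller-Hinton II […], with an inoculum of 5×10^5 CFU/mL and antibiotic spanning 64-0.06 μg/mL. The MIC is the lowest concentration that inhibits growth of the organism.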

Escherichia coli = assay: as above; assay type: cell-based
Procedure, shortened: as §1

Staphylococcus sp. = assay: as above; assay type: cell-based; settings: broth dilution, 18 hours at 35° C.; for MIC Staphylococcus aureus (GC 1131): strain GC 1131
Procedure, shortened: as §1

Streptococcus sp. = assay: as above; assay type: cell-based; settings: broth dilution, 18 hours at 35° C.
Procedure, shortened: as §1

[1] = system: Staphylococcus aureus-SMITH (GC 4543); assay: acute lethal infection in mice; assay type: in vivo; settings: acute lethal infection, female CD-1 mice, intraperitoneal challenge, intravenous 30 min. after infection, 7 day survival
Procedure, shortened: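 Intraperitoneal challenge of female CD-1 mice with a bacterial dose lethal to untreated animals within 24-48 hr; single iv treatment 30 min later, 5 mice per dose level. Survival is scored at day 7 and pooled from three experiments to give the median effective dose.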

CC(c1ccccc1)C1NC(=O)CNC(=O)C(CO)NC(=O)C(C(O)C2CNC(=N)N2C2OC(CO)C(O)C(O)C2O)NC(=O)C(C(O)C2CNC(=N)N2)NC(=O)C(Cc2ccc(OC3OC(CO)C(OC4OC5COC(c6ccc7c(c6)OCO7)OC5C(O)C4O)C(O)C3O)cc2)NC1=O (stereo not drawn) [Example 143, Cyclo[glycyl-β-methylphenylalanyl-O-[4-O-[4,6-O-(1,3-benzodioxol-5-ylmethylene)hexopyranosyl]hexopyranosyl]tyrosyl-3-(2-iminoimidazolidin-4-yl)seryl-3-(3-hexopyranosyl-2-iminoimidazolidin-4-yl)serylseryl]]
MIC Enterococcus avium (GC 4558) (Enterococcus sp.; Enterococcus avium (GC 4558)): 8 to 16 µg/mL | MIC Enterococcus faecalis (ATCC 29212) (Enterococcus sp.; Enterococcus faecalis (ATCC 29212)): 8 to 16 µg/mL | MIC Enterococcus faecalis (GC 2242) (Enterococcus sp.; Enterococcus faecalis (GC 2242)): 4 to 16 µg/mL | MIC Enterococcus faecalis (GC 2691) (Enterococcus sp.; Enterococcus faecalis (GC 2691)): 8 µg/mL (≈ 5.6 µM) | MIC Enterococcus faecalis (GC 3059) (Enterococcus sp.; Enterococcus faecalis (GC 3059)): 8 to 16 µg/mL | MIC Enterococcus faecalis (GC 4552) (Enterococcus sp.; Enterococcus faecalis (GC 4552)): 8 to 16 µg/mL | MIC Enterococcus faecalis (GC 4553) (Enterococcus sp.; Enterococcus faecalis (GC 4553)): 8 to 16 µg/mL | MIC Enterococcus faecalis (GC 4554) (Enterococcus sp.; Enterococcus faecalis (GC 4554)): 8 to 16 µg/mL | MIC Enterococcus faecalis (GC 6189) (Enterococcus sp.; Enterococcus faecalis (GC 6189)): 4 to 16 µg/mL | MIC Enterococcus faecium (GC 2243) (Enterococcus sp.; Enterococcus faecium (GC 2243)): 8 to 16 µg/mL | MIC Enterococcus faecium (GC 4556) (Enterococcus sp.; Enterococcus faecium (GC 4556)): 8 to 16 µg/mL | MIC Enterococcus faecium (GC 4557) (Enterococcus sp.; Enterococcus faecium (GC 4557)): 2 to 8 µg/mL | MIC Enterococcus faecalis (ATCC 29212) (Enterococcus sp.; strain ATCC 29212): 8 to 16 µg/mL | MIC Enterococcus faecalis (GC 2242) (Enterococcus sp.; strain GC 2242): 4 to 16 µg/mL | MIC Enterococcus faecium (GC 2243) (Enterococcus sp.; strain GC 2243): 8 to 16 µg/mL | MIC Enterococcus faecalis (GC 2691) (Enterococcus sp.; strain GC 2691): 8 µg/mL (≈ 5.6 µM) | MIC Enterococcus faecalis (GC 3059) (Enterococcus sp.; strain GC 3059): 8 to 16 µg/mL | MIC Enterococcus faecalis (GC 4552) (Enterococcus sp.; strain GC 4552): 8 to 16 µg/mL | MIC Enterococcus faecalis (GC 4553) (Enterococcus sp.; strain GC 4553): 8 to 16 µg/mL | MIC Enterococcus faecalis (GC 4554) (Enterococcus sp.; strain GC 4554): 8 to 16 µg/mL | MIC Enterococcus faecium (GC 4556) (Enterococcus sp.; strain GC 4556): 8 to 16 µg/mL | MIC Enterococcus faecium (GC 4557) (Enterococcus sp.; strain GC 4557): 2 to 8 µg/mL | MIC Enterococcus avium (GC 4558) (Enterococcus sp.; strain GC 4558): 8 to 16 µg/mL | MIC Enterococcus faecalis (GC 6189) (Enterococcus sp.; strain GC 6189): 4 to 16 µg/mL | MIC Escherichia coli (ATCC 25922) (Escherichia coli; strain ATCC 25922, 18 hours at 35° C.): >64 µg/mL | MIC Escherichia coli (GC 4559) (Escherichia coli; strain GC 4559, 18 hours at 35° C.): 64 µg/mL (≈ 44.8 µM) | MIC Escherichia coli (GC 4560) (Escherichia coli; strain GC 4560, 18 hours at 35° C.): 1 to 2 µg/mL | MIC Staphylococcus aureus (GC 1131) (Staphylococcus sp.; inoculum 5×10^5 CFU/mL): 2 to 4 µg/mL | MIC Staphylococcus aureus (ATCC 29213) (Staphylococcus sp.; strain ATCC 29213): 2 to 4 µg/mL | MIC Staphylococcus aureus (GC 1131) (Staphylococcus sp.): 2 to 4 µg/mL | MIC Staphylococcus aureus (GC 3051) (Staphylococcus sp.; strain GC 3051): 2 to 4 µg/mL | MIC Staphylococcus aureus (GC 3053) (Staphylococcus sp.; strain GC 3053): 4 to 8 µg/mL | MIC Staphylococcus aureus (GC 4541) (Staphylococcus sp.; strain GC 4541): 2 to 4 µg/mL | MIC Staphylococcus aureus (GC 4542) (Staphylococcus sp.; strain GC 4542): 1 to 4 µg/mL | MIC Staphylococcus aureus-SMITH (GC 4543) (Staphylococcus sp.; strain GC 4543): 2 to 4 µg/mL | MIC Staphylococcus aureus (GC 4544) (Staphylococcus sp.; strain GC 4544): 2 to 8 µg/mL | MIC Staphylococcus aureus (GC 4545) (Staphylococcus sp.; strain GC 4545): 2 to 4 µg/mL | MIC Staphylococcus haemolyticus (GC 4546) (Staphylococcus sp.; strain GC 4546): 0.5 to 2 µg/mL | MIC Coagulase Negative Staphylococcus (GC 4547) (Staphylococcus sp.; strain GC 4547): 1 to 2 µg/mL | MIC Coagulase Negative Staphylococcus (GC 4548) (Staphylococcus sp.; strain GC 4548): 1 to 2 µg/mL | MIC Coagulase Negative Staphylococcus (GC 4549) (Staphylococcus sp.; strain GC 4549): 1 µg/mL (≈ 0.701 µM) | MIC Coagulase Negative Staphylococcus (GC 4551) (Staphylococcus sp.; strain GC 4551): 2 to 4 µg/mL | MIC Coagulase Negative Staphylococcus (GC 6257) (Staphylococcus sp.; strain GC 6257): 1 to 2 µg/mL | MIC Staphylococcus aureus-SMITH (GC 4543) (Staphylococcus sp.; strain SMITH GC 4543): 2 to 4 µg/mL | MIC Streptococcus agalactiae (GC 4564) (Streptococcus sp.; Streptococcus agalactiae (GC 4564)): 0.5 to 1 µg/mL | MIC Streptococcus pneumoniae (ATCC 6301) (Streptococcus sp.; Streptococcus pneumoniae (ATCC 6301)): 0.12 to 0.5 µg/mL | MIC Streptococcus pneumoniae (GC 1894) (Streptococcus sp.; Streptococcus pneumoniae (GC 1894)): <0.06 to 0.12 µg/mL | MIC Streptococcus pneumoniae (GC 4565) (Streptococcus sp.; Streptococcus pneumoniae (GC 4565)): 0.25 to 0.5 µg/mL | MIC Streptococcus pyogenes (GC 4563) (Streptococcus sp.; Streptococcus pyogenes (GC 4563)): 0.25 to 1 µg/mL | MIC Streptococcus pneumoniae (ATCC 6301) (Streptococcus sp.; strain ATCC 6301): 0.12 to 0.5 µg/mL | MIC Streptococcus pneumoniae (GC 1894) (Streptococcus sp.; strain GC 1894): <0.06 to 0.12 µg/mL | MIC Streptococcus pyogenes (GC 4563) (Streptococcus sp.; strain GC 4563): 0.25 to 1 µg/mL | MIC Streptococcus agalactiae (GC 4564) (Streptococcus sp.; strain GC 4564): 0.5 to 1 µg/mL | MIC Streptococcus pneumoniae (GC 4565) (Streptococcus sp.; strain GC 4565): 0.25 to 0.5 µg/mL | median effective dose (ED50), Staphylococcus aureus-SMITH (GC 4543) [1]: 0.28 mg/kg
